Where two headings read alike, the source gives them in different places.

The subject of one assay is UMUC9 cells. Nature of the assay: Proliferation UMUC9 H2B-GFP assay (Incucyte). It is filed as cell-based. To be noted: 7 days of treatment; for IC50: Day 1 subtracted, percentage of DMSO control; for Emax: UM-UC-9, 168 h, % efficacy (span). The procedure: Proliferation UMUC9 H2B-GFP assay
Instrument: Incucyte® (Sartorius).
Description: Incucyte® Proliferation Assay measures cell proliferation based on nuclei count using live-cell time-lapse imaging. […] Measurements were performed on the day of treatment (Day 1 reading) and after 7 days of treatment (Day 8 reading). Green fluorescence in cell nuclei is measured using the instrument (Image Channels: Phase, Green; Acquisition time: 300 ms; Magnification: 4×).
Analysis: Selected metrics for analysis: Phase Object Confluence (Percent), Nuclei Count (1/Well) and Total Nuclei Area (μm^2/Well). Day 1 measurements were subtracted from each Day 8 measurement and expressed as percentage of the vehicle (DMSO) control. Percentage proliferation values were then plotted against compound concentration using GraphPad PRISM software. The Sigmoidal 4PL X is log (concentration) model of […] was used. Relative IC50 values and % efficacy (span) is reported below.

A further assay concerns the target T1, PPARG receptors (Homo sapiens, UniProt P37231).
T1 construct: leading to PPARG dependent expression of the NanoLuc@ Luciferase; endogenous in cells
T1 sequence (P37231 1-505): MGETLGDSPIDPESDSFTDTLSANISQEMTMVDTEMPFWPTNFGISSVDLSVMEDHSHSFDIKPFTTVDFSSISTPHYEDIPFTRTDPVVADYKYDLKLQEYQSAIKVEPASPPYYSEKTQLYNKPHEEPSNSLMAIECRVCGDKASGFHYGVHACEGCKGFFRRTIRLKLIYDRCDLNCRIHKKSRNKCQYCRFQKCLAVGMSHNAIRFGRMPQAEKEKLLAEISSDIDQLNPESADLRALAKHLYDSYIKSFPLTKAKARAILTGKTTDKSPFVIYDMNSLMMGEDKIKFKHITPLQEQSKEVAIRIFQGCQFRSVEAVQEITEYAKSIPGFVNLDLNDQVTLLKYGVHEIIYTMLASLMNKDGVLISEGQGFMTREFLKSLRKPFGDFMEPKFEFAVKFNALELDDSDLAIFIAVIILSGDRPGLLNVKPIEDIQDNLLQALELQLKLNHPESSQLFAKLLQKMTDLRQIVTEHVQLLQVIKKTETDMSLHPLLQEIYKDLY
Put plainly: RT-112-FABP4-NLuc Reporter Gene Assay (inverse agonism). It is filed as cell-based. To be noted: incubated over night; for IC50: 50 μM to 0.03 nM; for Emax: RT112/84, read-out: PPARG_RT-112_FABP4_NLuc_inverse agonist Efficacy - [%], bladder cancer cell line RT-112/84, NanoLuc in FABP4 3′ UTR. The procedure: Inverse agonists reduce the basal expression of the Luciferase resulting in a decrease of the Luciferase signal after addition of substrate and cell lysis. To exclude toxic effects of the compounds a parallel measurement of cell viability was performed based on the CellTiter Glo Assay (Promega).
On the next day 10 μl of test compounds dissolved in DMEM/F12 2% FBS and 0,01% BSA are placed in the wells of the microtiter plates. Final concentrations ranged from 50 μM to 0.03 nM. […] On the next day the NanoLuc Luciferase activity was measured by addition of 40 μl of NanoLuc substrate and lysis buffer (Promega, Madison, Wisconsin) diluted in 2 mM Ca-tyrode buffer (20 mM HEPES, 130 mM NaCl, 5 mM KCl, 5 mM NaHCO3, 2 mM MgCl2, pH 7,4). The resulting light signal was measured for 60 seconds in a luminometer. Every sample was tested in quadruples and mean values were used to calculate the IC50 values and efficacies of the compounds.

Where [1] appears, read: PPARG_RT-112_FABP4_NLuc_inverse agonist IC50 - [mol/l], bladder cancer cell line RT-112/84, NanoLuc in FABP4 3′ UTR.

In the case of `O=C(NCc1ccc(F)c(F)c1)c1cc(C(=O)Nc2ccc(OC(F)F)cc2)c(Cl)cc1F` [Example 3, 4-chloro-N^3-[4-(difluoromethoxy)phenyl]-N^1-[(3,4-difluorophenyl)methyl]-6-fluorobenzene-1,3-dicarboxamide], the IC50 was above 6000 nM with UMUC9 cells (UM-UC-9, relative IC50) and 3.15 nM on PPARG receptors (setting [1]). In addition, on PPARG receptors, the Emax amounted to 90.5%.

Take `O=C(NCc1ccccc1)c1cc(Cl)c(Cl)c(C(=O)Nc2ccc(OC(F)F)cc2)c1F` [Example 31, N^1-benzyl-4,5-dichloro-N^3-[4-(difluoromethoxy)phenyl]-2-fluorobenzene-1,3-dicarboxamide]: the IC50 was above 6000 nM in the assay on UMUC9 cells (UM-UC-9, relative IC50) and 0.3 nM at PPARG receptors (setting [1]). Besides, the Emax at PPARG receptors amounted to 86.8%.

Take `O=C(NCc1ccc(F)c(F)c1)c1cc(Cl)c(Cl)c(C(=O)Nc2ccc(C3CC3)cn2)c1` [Example 14, 4,5-dichloro-N^3-(5-cyclopropylpyridin-2-yl)-N^1-[(3,4-difluorophenyl)methyl]benzene-1,3-dicarboxamide]: the Emax in the assay on UMUC9 cells was determined as 85%; on PPARG receptors, 82.5%. Also, the IC50 in the assay on UMUC9 cells (UM-UC-9, relative IC50) turned out to be 1570 nM; at PPARG receptors (setting [1]) it was 0.42 nM.

For the compound `Cc1noc(-c2ccc(NC(=O)c3cc(C(=O)NCc4ccc(F)cc4)c(F)cc3Cl)cc2)n1` [Example 23, 4-chloro-6-fluoro-N^1-[(4-fluorophenyl)methyl]-N^3-[4-(3-methyl-1,2,4-oxadiazol-5-yl)phenyl]benzene-1,3-dicarboxamide], the values for the Emax in the assay with UMUC9 cells and on PPARG receptors were 54% and 148%, respectively. The IC50 in the assay with UMUC9 cells (UM-UC-9, relative IC50) stood at 3.77 nM; at PPARG receptors (setting [1]), 0.815 nM.

For `Cc1ccccc1CNC(=O)c1cc(Cl)c(Cl)c(C(=O)Nc2ccccc2)c1` [Example 17, 4,5-dichloro-N^1-[(2-methylphenyl)methyl]-N^3-phenylbenzene-1,3-dicarboxamide], the Emax with UMUC9 cells was found to be 28.3%; on PPARG receptors, 71%. The IC50 is 1.52 nM in the assay on UMUC9 cells (UM-UC-9, relative IC50) and 1.3 nM at PPARG receptors (setting [1]).

On to `O=C(NCc1ccc(F)c(F)c1)c1cc(Cl)c(Cl)c(C(=O)Nc2ccc(C(F)(F)F)cn2)c1` [Example 13, 4,5-dichloro-N′-[(3,4-difluorophenyl)methyl]-N^3-[5-(trifluoromethyl)pyridin-2-yl]benzene-1,3-dicarboxamide], for which the Emax amounted to 77% with UMUC9 cells and 77.5% on PPARG receptors. Besides, the IC50 was 4800 nM in the assay on UMUC9 cells (UM-UC-9, relative IC50) and 0.4 nM at PPARG receptors (setting [1]).

For `O=C(NCc1ccc(F)c(F)c1)c1cc(C(=O)Nc2ccc(N3CCOCC3)cc2)c(Cl)cc1F` [Example 35, 4-chloro-N^1-(3,4-difluorobenzyl)-6-fluoro-N^3-(4-morpholinophenyl)isophthalamide], the Emax in the assay on UMUC9 cells stood at 92.3%; at PPARG receptors, 102%. Also, the IC50 came to 182 nM in the assay with UMUC9 cells (UM-UC-9, relative IC50) and 21.5 nM at PPARG receptors (setting [1]).

For the compound `Cc1cc(N2CCCC(O)C2)ccc1NC(=O)c1cc(C(=O)NCc2ccc(F)c(F)c2)c(F)cc1Cl` (single isomer, unassigned) [Example 6, 4-chloro-N′-[(3,4-difluorophenyl)methyl]-6-fluoro-N^3-{4-[3-hydroxypiperidin-1-yl]-2-methylphenyl}benzene-1,3-dicarboxamide], the Emax in the assay on UMUC9 cells turned out to be 79.5%. Further, the IC50 was 21.7 nM with UMUC9 cells (relative IC50, read-out: UM-UC-9 GFP proliferation IC50 -) and 4.1 nM on PPARG receptors (setting [1]). Further, the “PPARG_RT-112_FABP4_NLuc_inverse agonist Efficacy - [%]” value on PPARG receptors (bladder cancer cell line RT-112/84, NanoLuc in FABP4 3′ UTR) came out at 134.50%.

In the case of `Cc1cc(OCCO)ccc1NC(=O)c1cc(C(=O)NCc2ccc(F)c(F)c2)cc(Cl)c1Cl` [Example 8, 4,5-dichloro-N^1-[(3,4-difluorophenyl)methyl]-N^3-[4-(2-hydroxyethoxy)-2-methylphenyl]benzene-1,3-dicarboxamide], the Emax stood at 71.5% in the assay on UMUC9 cells and 96% at PPARG receptors. The IC50 stood at 32.2 nM with UMUC9 cells (UM-UC-9, relative IC50) and 0.9 nM on PPARG receptors (setting [1]).

As to `COCCOCc1cc(F)ccc1CNC(=O)c1cc(C(=O)Nc2ccc(C(F)(F)F)cc2C)c(Cl)cc1F` [Example 26, 4-chloro-6-fluoro-N^1-({4-fluoro-2-[(2-methoxyethoxy)methyl]phenyl}methyl)-N^3-[2-methyl-4-(trifluoromethyl)phenyl]benzene-1,3-dicarboxamide], the Emax in the assay with UMUC9 cells came to 73.4%; at PPARG receptors, 94%. Moreover, the IC50 worked out at 27.5 nM in the assay with UMUC9 cells (UM-UC-9, relative IC50) and 7.35 nM at PPARG receptors (read-out: PPARG_RT-112_FABP4_NLuc_inverse agonist IC50 - [mol/l], bladder cancer cell line RT-112/84, NanoLuc in FABP4 3′ UTR).

For the compound `O=C(NCc1ccc(F)c(F)c1)c1cc(C(=O)Nc2cnc(Oc3ccccc3)cn2)c(Cl)cc1F` [Example 36, 4-chloro-N^1-(3,4-difluorobenzyl)-6-fluoro-N^3-(5-phenoxypyrazin-2-yl)isophthalamide], the Emax stood at 66% in the assay with UMUC9 cells and 97.5% at PPARG receptors. The IC50 was 5.98 nM in the assay on UMUC9 cells (UM-UC-9, relative IC50) and 1.26 nM at PPARG receptors (setting [1]).

As to `Cc1cccc(-c2nc3cc(NC(=O)c4cc(C(=O)NCc5ccc(F)c(F)c5)c(F)c(C)c4Cl)ccc3o2)c1` [Example 20, 4-chloro-N^1-[(3,4-difluorophenyl)methyl]-6-fluoro-5-methyl-N^3-[2-(3-methylphenyl)-1,3-benzoxazol-5-yl]benzene-1,3-dicarboxamide], the Emax was 69.6% in the assay with UMUC9 cells and 114% at PPARG receptors. Besides, the IC50 in the assay on UMUC9 cells (UM-UC-9, relative IC50) came out at 5.91 nM; on PPARG receptors (setting [1]) it was 0.455 nM.

In the case of `COCCOc1ccc(NC(=O)c2cc(C(=O)NCc3ccc(F)c(F)c3)c(F)c(C)c2Cl)c(C)c1` [Example 19, 4-chloro-N^1-[(3,4-difluorophenyl)methyl]-6-fluoro-N^3-[4-(2-methoxyethoxy)-2-methylphenyl]-5-methylbenzene-1,3-dicarboxamide], the Emax was found to be 65.9% in the assay on UMUC9 cells and 144% at PPARG receptors. The IC50 turned out to be 11.6 nM in the assay on UMUC9 cells (UM-UC-9, relative IC50) and 1.22 nM at PPARG receptors (setting [1]).

As to `O=C(NCc1ccc(F)c(F)c1)c1cc(Cl)c(Cl)c(C(=O)Nc2cnccn2)c1` [Example 42, 4,5-dichloro-N^1-(3,4-difluorobenzyl)-N^3-(pyrazin-2-yl)isophthalamide], the Emax came to 68.6% in the assay on UMUC9 cells and 102% at PPARG receptors. Further, the IC50 in the assay with UMUC9 cells (UM-UC-9, relative IC50) turned out to be 1.94 nM; on PPARG receptors (setting [1]) it was 4.7 nM.

As to `Cc1cccc(-c2nc3cc(NC(=O)c4cc(C(=O)NCc5ccc(F)cc5)cc(Cl)c4Cl)ccc3o2)c1` [Example 9, 4,5-dichloro-N^1-[(4-fluorophenyl)methyl]-N^3-[2-(3-methylphenyl)-1,3-benzoxazol-5-yl]benzene-1,3-dicarboxamide], the Emax with UMUC9 cells is 58.1%; on PPARG receptors, 105%. The IC50 turned out to be 4.51 nM with UMUC9 cells (UM-UC-9, relative IC50) and 0.355 nM on PPARG receptors (setting [1]).

For `O=C(NCc1ccccc1)c1cc(Cl)c(Br)c(C(=O)Nc2ccccc2)c1` [Example 49, N^1-benzyl-4-bromo-5-chloro-N^3-phenylbenzene-1,3-dicarboxamide], the Emax in the assay on UMUC9 cells was 34.5%; on PPARG receptors, 72.5%. The IC50 with UMUC9 cells (UM-UC-9, relative IC50) was found to be 3170 nM; at PPARG receptors (setting [1]), 0.99 nM.

With `Cc1ccccc1NC(=O)c1cc(C(=O)NCc2ccccc2)c(F)cc1Cl` [Example 25, N1-benzyl-4-chloro-6-fluoro-N^3-(2-methylphenyl)benzene-1,3-dicarboxamide], the IC50 is above 6000 nM with UMUC9 cells (UM-UC-9, relative IC50) and 40 nM at PPARG receptors (setting [1]). In addition, on PPARG receptors, the Emax came out at 99.3%.

The values are drawn from US20240150277A1, “Covalent PPARG inverse-agonists” (Bayer Aktiengesellschaft, priority 2022, published 2024).
